Assay results as given in the supplement of paper PMC11451515.

Tested on: P12-Ichikawa
Test: cell viability relative to DMSO control; higher = less cytotoxic
Settings: 48 h
Procedure, shortened: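 Library compounds in DMSO were pin-dosed into 1536-well plates (5 μl) holding NOMO1 or SEM (500 cells/well) or P12-Ichikawa (1000 cells/well) leukemia cells, across an 11-point threefold series of 47 μM to 0.79 nM. Each cell line had been adapted for at least four passages in each medium. CellTiter-Glo One luminescence was read after 48 h at 37°C. Viability is the per-plate percentage relative to DMSO wells, with cell-free wells as background.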

[1] = HPLM + 10% dialyzed FBS, 0.000781 µM
[2] = HPLM + 10% dialyzed FBS, 0.00234 µM
[3] = HPLM + 10% dialyzed FBS, 0.00702 µM
[4] = HPLM + 10% dialyzed FBS, 0.0211 µM
[5] = HPLM + 10% dialyzed FBS, 0.0632 µM
[6] = HPLM + 10% dialyzed FBS, 0.19 µM
[7] = HPLM + 10% dialyzed FBS, 0.569 µM
[8] = HPLM + 10% dialyzed FBS, 1.71 µM
[9] = HPLM + 10% dialyzed FBS, 5.12 µM
[10] = HPLM + 10% dialyzed FBS, 15.4 µM
[11] = HPLM + 10% dialyzed FBS, 46.1 µM
[12] = RPMI 5 mM glucose + 10% FBS, 0.000781 µM
[13] = RPMI 5 mM glucose + 10% FBS, 0.00234 µM
[14] = RPMI 5 mM glucose + 10% FBS, 0.00702 µM
[15] = RPMI 5 mM glucose + 10% FBS, 0.0211 µM
[16] = RPMI 5 mM glucose + 10% FBS, 0.0632 µM
[17] = RPMI 5 mM glucose + 10% FBS, 0.19 µM
[18] = RPMI 5 mM glucose + 10% FBS, 0.569 µM
[19] = RPMI 5 mM glucose + 10% FBS, 1.71 µM
[20] = RPMI 5 mM glucose + 10% FBS, 5.12 µM
[21] = RPMI 5 mM glucose + 10% FBS, 15.4 µM
[22] = RPMI 5 mM glucose + 10% FBS, 46.1 µM
[23] = RPMI 5 mM glucose + 10% dialyzed FBS, 0.000781 µM
[24] = RPMI 5 mM glucose + 10% dialyzed FBS, 0.00234 µM
[25] = RPMI 5 mM glucose + 10% dialyzed FBS, 0.00702 µM
[26] = RPMI 5 mM glucose + 10% dialyzed FBS, 0.0211 µM
[27] = RPMI 5 mM glucose + 10% dialyzed FBS, 0.0632 µM
[28] = RPMI 5 mM glucose + 10% dialyzed FBS, 0.19 µM
[29] = RPMI 5 mM glucose + 10% dialyzed FBS, 0.569 µM
[30] = RPMI 5 mM glucose + 10% dialyzed FBS, 1.71 µM
[31] = RPMI 5 mM glucose + 10% dialyzed FBS, 5.12 µM
[32] = RPMI 5 mM glucose + 10% dialyzed FBS, 15.4 µM
[33] = RPMI 5 mM glucose + 10% dialyzed FBS, 46.1 µM

N#CC[C@H](C1CCCC1)n1cc(-c2ncnc3[nH]ccc23)cn1
cell viability [1]: 95.7% | cell viability [2]: 95.2% | cell viability [3]: 98.5% | cell viability [4]: 98.1% | cell viability [5]: 98.6% | cell viability [6]: 90.3% | cell viability [7]: 89.4% | cell viability [8]: 91.8% | cell viability [9]: 72.9% | cell viability [10]: 52.8% | cell viability [11]: 40% | cell viability [12]: 93.7% | cell viability [13]: 95.7% | cell viability [14]: 93.4% | cell viability [15]: 92.6% | cell viability [16]: 103% | cell viability [17]: 89.2% | cell viability [18]: 83.1% | cell viability [19]: 95.4% | cell viability [20]: 75.4% | cell viability [21]: 54.5% | cell viability [22]: 23.3% | cell viability [23]: 90.8% | cell viability [24]: 89% | cell viability [25]: 86.3% | cell viability [26]: 87.4% | cell viability [27]: 89.6% | cell viability [28]: 88.3% | cell viability [29]: 82.2% | cell viability [30]: 87.7% | cell viability [31]: 70.4% | cell viability [32]: 41.1% | cell viability [33]: 23.3%

O=C1N\C=N/C2=C1C=N[NH]2
cell viability [1]: 83.8% | cell viability [2]: 89.6% | cell viability [3]: 83.5% | cell viability [4]: 92.1% | cell viability [5]: 83.9% | cell viability [6]: 93.2% | cell viability [7]: 91.1% | cell viability [8]: 87.6% | cell viability [9]: 72.4% | cell viability [10]: 77.8% | cell viability [11]: 25.4% | cell viability [12]: 83.9% | cell viability [13]: 91.4% | cell viability [14]: 84% | cell viability [15]: 87.9% | cell viability [16]: 80.6% | cell viability [17]: 81.7% | cell viability [18]: 82.8% | cell viability [19]: 79.1% | cell viability [20]: 84.2% | cell viability [21]: 84.4% | cell viability [22]: 67.3% | cell viability [23]: 81.7% | cell viability [24]: 86.2% | cell viability [25]: 79.1% | cell viability [26]: 88.7% | cell viability [27]: 78.7% | cell viability [28]: 79.3% | cell viability [29]: 90.5% | cell viability [30]: 85.2% | cell viability [31]: 87.1% | cell viability [32]: 85.2% | cell viability [33]: 68%

Cc1ccc(-c2cc(C(F)(F)F)nn2-c2ccc([S+](N)(=O)[O-])cc2)cc1
cell viability [1]: 86.8% | cell viability [2]: 125% | cell viability [3]: 118% | cell viability [4]: 118% | cell viability [5]: 120% | cell viability [6]: 110% | cell viability [7]: 128% | cell viability [8]: 117% | cell viability [9]: 115% | cell viability [10]: 112% | cell viability [11]: 105% | cell viability [23]: 111% | cell viability [24]: 119% | cell viability [25]: 122% | cell viability [26]: 113% | cell viability [27]: 115% | cell viability [28]: 123% | cell viability [29]: 123% | cell viability [30]: 122% | cell viability [31]: 121% | cell viability [32]: 105% | cell viability [33]: 102%

OC[C@H]1OC(OC2=CC3=C(C(=C2)O)C(=O)\C(=C/O3)C4=CC=C(O)C=C4)[C@H](O)[C@@H](O)[C@@H]1O (some centres undefined)
cell viability [1]: 87.8% | cell viability [2]: 90.5% | cell viability [3]: 91.9% | cell viability [4]: 81.5% | cell viability [5]: 86.2% | cell viability [6]: 86.9% | cell viability [7]: 86.1% | cell viability [8]: 84.1% | cell viability [9]: 76% | cell viability [10]: 80.5% | cell viability [11]: 81.3% | cell viability [12]: 76.4% | cell viability [13]: 89.3% | cell viability [14]: 83.8% | cell viability [15]: 88.7% | cell viability [16]: 95.2% | cell viability [17]: 83.2% | cell viability [18]: 82.9% | cell viability [19]: 78% | cell viability [20]: 79% | cell viability [21]: 82.4% | cell viability [22]: 85.6% | cell viability [23]: 82.5% | cell viability [24]: 85.1% | cell viability [25]: 90.6% | cell viability [26]: 88.1% | cell viability [27]: 86% | cell viability [28]: 82.9% | cell viability [29]: 69.3% | cell viability [30]: 86.3% | cell viability [31]: 71.7% | cell viability [32]: 79.7% | cell viability [33]: 80%

CC(C)c1c(C(=O)Nc2ccccc2)c(-c2ccccc2)c(-c2ccc(F)cc2)n1CC[C@@H](O)C[C@@H](O)CC(=O)[O-]
cell viability [1]: 101% | cell viability [2]: 102% | cell viability [3]: 106% | cell viability [4]: 99.4% | cell viability [5]: 98.6% | cell viability [6]: 97.4% | cell viability [7]: 106% | cell viability [8]: 91.2% | cell viability [9]: 85.7% | cell viability [10]: 85.2% | cell viability [11]: 47.2% | cell viability [12]: 97.5% | cell viability [13]: 92.6% | cell viability [14]: 99.6% | cell viability [15]: 94.7% | cell viability [16]: 97.1% | cell viability [17]: 87.9% | cell viability [18]: 93.3% | cell viability [19]: 87.6% | cell viability [20]: 68.4% | cell viability [21]: 56.3% | cell viability [22]: 23.2% | cell viability [23]: 97.4% | cell viability [24]: 91.9% | cell viability [25]: 91.2% | cell viability [26]: 92% | cell viability [27]: 95.7% | cell viability [28]: 90.5% | cell viability [29]: 89.5% | cell viability [30]: 83.8% | cell viability [31]: 85.1% | cell viability [32]: 67.6% | cell viability [33]: 36.3%
